Results from PubChem BioAssay AID179 (DTP/NCI, 2004).
The source made the active and inactive calls.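 How the source made its calls: active means compounds giving half or more protection of infected cells from virus-caused growth loss, again on retest; inactive means the rest.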

System: CEM cells HIV-1 protection, formazan growth assay
Test: NCI AIDS Antiviral Assay
Conditions: for IC50: measured here: growth of uninfected CEM cells
Method in brief: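 Human CEM cells, uninfected and HIV-1-infected, exposed to five drug concentrations; growth measured by soluble formazan assay and scored as percent protection from infection, with protecting compounds retested.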

Compound | EC50 | IC50 | outcome
O=C(COc1ccc(Cl)cc1)N1N=C(c2ccc(Cl)cc2)CC1(O)c1ccccc1 (stereo not given) | > 16.2 µM | > 16.2 µM | –
NCC1OC(n2cnc3c(N)ncnc32)CC1O (stereo not given) | > 200 µM | > 200 µM | –
C[N+]1(Cc2ccc([N+](=O)[O-])cc2)CCC(CCCCCCCC2CC[N+](C)(Cc3ccc([N+](=O)[O-])cc3)CC2)CC1 (stereo not given) | > 200 µM | 14.5 µM | –
O=c1c2ccccc2nc2sc(/N=C/C=C/c3ccccc3)nn12 | > 200 µM | 41.7 µM | –
OCCN1c2ccccc2Sc2ccccc21 | > 200 µM | 105 µM | –
CCOP(=O)(OCC)/C(C#N)=C/c1cccs1 | 77.6 µM | 724 µM | –
O=C1CC2(c3ccccc3)ON=C(c3ccccc3)N2c2ccccc2N1 (stereo not given) | > 200 µM | 85.1 µM | –
CN(C)C(=O)Oc1c(-c2ccccc2)c(=O)n2c3ccccc3n3c(=O)n(C)c(=O)c1c23 | > 1.26 µM | > 1.26 µM | –
Oc1ccc(/C=C/c2ccc(O)c(O)c2)cc1O | > 200 µM | 14.5 µM | –
O=S(=O)(O)c1cc(O)c2c(O)cc(S(=O)(=O)O)c(N=Nc3ccc(/C=C/c4ccc(N=Nc5c(S(=O)(=O)O)cc(O)c6c(O)cc(S(=O)(=O)O)cc56)cc4S(=O)(=O)O)c(S(=O)(=O)O)c3)c2c1 | 15.5 µM | 75.9 µM | –
CC1(C)Nc2cc3c(cc2-n2cccc21)oc1ccccc13 | > 200 µM | 9.12 µM | –
CCOC(=O)CN1CCC2CC1c1c([nH]c3ccccc13)C21OCCO1 (stereo not given) | > 200 µM | > 200 µM | –
CN(C)c1ccc(C2=C([O-])c3cc(-[n+]4ccccc4)ccc3C2=O)cc1 | > 200 µM | 178 µM | –
O=c1cc(-c2ccccc2)oc2ccccc12 | > 135 µM | 75.9 µM | –
CC(C)(C)OC(=O)NC(Cc1ccc([N+](=O)[O-])cc1)C(=O)NC(CCCCNC(=O)OCc1ccccc1)C(=O)ON1C(=O)CCC1=O (stereo not given) | > 200 µM | 56.2 µM | –
C/C=C/C=C/c1cc2cc3c(c(O)c2c(=O)[nH]1)C1(CC3)C(O)=c2c(=O)c3c(=O)cc(OC)c(=O)c=3c(=O)c2=C1O (stereo not given) | > 200 µM | 5.89 µM | –
CC(C)C1OC2(C)OC(=N)C1(C#N)C(C#N)(C#N)C2C (stereo not given) | > 200 µM | 12 µM | –
C=CCOc1cccc(C2(O)c3ccccc3C3=NCCCN32)c1 (stereo not given) | > 200 µM | 37.2 µM | –
CCOC(=O)c1sc2c(c1OC(=O)c1cccs1)c(=O)n(-c1ccccc1)c(=S)n2-c1ccccc1 | > 200 µM | 6.92 µM | –
CCCCSCc1nc2ccccc2c(C)[n+]1[O-] | 234 µM | 437 µM | –
Nc1nc(Cl)c2ncn(C3C=CC(CO)CC3)c2n1 (stereo not given) | > 200 µM | 97.7 µM | –

Compound | EC50 | IC50 | outcome
COc1cccc([C@@]2(O)c3c(ccc(O)c3OC)[C@H]2OC)c1OC | > 15.8 µM | > 15.8 µM | –
O=C(O)C(=O)CC(=O)c1ccc(Br)cc1 | > 200 µM | – | –
COc1cc2nc3c(nc2cc1OC)-c1ccccc1C3=O | 3.02 µM | 9.33 µM | –
CCOC(=O)/C(=C\c1cccc(F)c1)[Se]c1ccccc1 | > 38.9 µM | > 38.9 µM | –
CC(=O)n1c(COc2ccc3c(C)cc(=O)oc3c2)nc2ccccc2c1=O | > 91.2 µM | > 91.2 µM | –
Oc1ccccc1C1SCc2nc3ccccc3n21 (stereo not given) | > 26.9 µM | > 26.9 µM | –
CCCCCCCCCCCCCCOP(=O)(O)OCCC=C(c1cc(Cl)c(O)c(C(=O)O)c1)c1cc(Cl)c(O)c(C(=O)O)c1 | > 200 µM | > 100 µM | –
CCOC(=O)COC(=O)c1cc(C(=CCC[C@H]2CC[C@@]3(C)[C@@H](CC[C@@H]4[C@@H]3CC[C@]3(C)[C@@H](C(C)CCCC(C)C)CC[C@@H]43)C2)c2cc(Cl)c(OCC(=O)OCC)c(C(=O)OCC(=O)OCC)c2)cc(Cl)c1OCC(=O)OCC (stereo not given in full) | > 200 µM | > 200 µM | –
CC(C)(C)N1C(=O)c2ccccc2C1(O)C(F)(F)F (stereo not given) | > 200 µM | 135 µM | –
Cc1csc(=S)n1OC(=O)NC1CCCCC1 | > 912 µM | 45.7 µM | –
Nc1ccc2cc(S(=O)(=O)O)cc(O)c2c1N=Nc1ccc(NC(=O)Nc2ccc(N=Nc3c(N)ccc4cc(S(=O)(=O)O)cc(O)c34)c(S(=O)(=O)O)c2)cc1S(=O)(=O)O | 55 µM | > 200 µM | –
CCCCC1OCCOC1C1COCCO1 (stereo not given) | > 195 µM | > 195 µM | –
c1cc2[nH]snc2c2cncc12 | > 200 µM | 11.2 µM | –
COc1ccc(/C=N/N=C(\N)NO)c(OC)c1OC | > 200 µM | > 200 µM | –
COC1=C2C[C@@H](C)C[C@@H](OC)[C@@H](O)[C@H](C)/C=C(\C)[C@@H](OC(N)=O)[C@H](OC)/C=C\C=C(/C)C(=O)NC(=CC1=O)C2=O | > 1.15 µM | 0.0813 µM | –
Cc1cc(NS(=O)(=O)c2ccc(NC(=O)c3cccc4c(NNc5ccc(S(N)(=O)=O)cc5)c5ccccc5nc34)cc2)no1 | > 200 µM | 37.2 µM | –
CO/N=C(\C)CCC#Cc1ccccc1C(=O)OC | > 200 µM | > 200 µM | –
O=C(CSc1nnc(-c2ccc(N=Cc3ccc(Cl)cc3)cc2)o1)Nc1ccccc1[N+](=O)[O-] | > 20.4 µM | > 20.4 µM | –
CN(C)C1(C(=O)O)CC1 | > 200 µM | > 200 µM | –
CCOC(=O)Cc1cc(=O)oc2cc(O)ccc12 | > 200 µM | 166 µM | –
NC(=O)NNCc1c(-c2ccccc2)no[n+]1[O-] | > 200 µM | > 200 µM | –

Compound | EC50 | IC50 | outcome
O=C(Nc1ccccc1C(=O)O)C(=Cc1ccccc1O)NC(=O)c1ccccc1 | > 200 µM | > 200 µM | –
O=c1nc(-c2ccccc2)cc(CC(O)c2ccc(Cl)c(Cl)c2)[nH]1 (stereo not given) | > 20 µM | > 20 µM | –
CC(C)(C)OC(=O)N[C@H]1CC(=O)c2ccccc2N(CC(=O)O)C1=O | > 251 µM | > 251 µM | –
Cc1cccc(C2(Br)C(=O)c3ccccc3C2=O)c1 | > 200 µM | 195 µM | –
OCC(O)C(O)C(O)c1nn(-c2ccc(F)cc2)c2nc3cc(Cl)c(Cl)cc3nc12 (stereo not given) | – | – | inactive
O=C1C(c2ccccc2)=C(O)c2cccc3cccc1c23 | > 912 µM | 85.1 µM | –
CC(C)OP(=O)(CP(=O)(OC(C)C)OC(C)C)CP(=O)(OC(C)C)OC(C)C | > 537 µM | 93.3 µM | –
Clc1cccc(C2N3CCCCC3[C@@H]3c4[nH]c5ccccc5c4CCN23)c1 (stereo not given in full) | > 13.8 µM | > 13.8 µM | –
O=C(O)c1cc(C(=CCCBr)c2cc(Cl)c(O)c(C(=O)O)c2)cc(Cl)c1O | 117 µM | 219 µM | –
Cc1ccc(/C=C2\Cc3c(C)cc(C)cc3C2=O)c(C(=O)O)c1 | > 200 µM | 85.1 µM | –
CC1OC1C(=O)P(=O)(O)O (stereo not given) | > 200 µM | > 200 µM | –
CCCC(=O)Sc1ccccc1C(=O)Nc1ccc(S(=O)(=O)NC(C)=O)cc1 | 28.2 µM | 112 µM | –
CCSc1nnc2c(-c3ccccc3)n[nH]c2n1 | – | – | inactive
COc1cc2c(c(OC)c1)C(C)=NC(C)C2 (stereo not given) | > 200 µM | 141 µM | –
CC1=N/C(=C\c2ccccc2)C(=O)O1 | > 20 µM | > 20 µM | –
O=C1NS(=O)(=O)c2cc(Cl)ccc21 | > 1150 µM | > 1150 µM | –
COC(=O)C12CC3CC(CC(C(=O)O)(C3)C1)C2 | > 759 µM | > 759 µM | –
O=[N+]([O-])c1ccc(C2=NOC3COC4C=CC=CC4OCC23)cc1 (stereo not given) | > 30.2 µM | > 30.2 µM | –
C=C(CCCO)[C@@H]1CC[C@](C)(O)[C@H]1C | – | – | inactive
COc1ccc(NCc2cccc3c(=O)c4ccc(Cl)cc4oc23)cc1 | 3.47 µM | 25.1 µM | –
COc1cc(-c2cc(-c3cc([N+](=O)[O-])c(/C=N/NC(=O)c4ccncc4)o3)ccc2OC)ccc1C | > 269 µM | 55 µM | –

Compound | EC50 | IC50 | outcome
CC1=C(C(=O)N[C@@H](CC(C)C)C(=O)O)N2C(=O)[C@@H](NC(=O)C(N)c3ccccc3)[C@H]2SC1 (stereo not given in full) | 117 µM | > 200 µM | –
CC/C(Cl)=N\OC(=O)Nc1ccc(C#N)cc1 | > 200 µM | 18.2 µM | –
O=C(CNc1cccc(Cl)c1)Nn1c(-c2ccccc2)nc2ccccc2c1=O | > 200 µM | 2.75 µM | –
CS(=O)(=O)CSCSSCS(C)(=O)=O | > 427 µM | 20 µM | –
COc1ncnc2c1ncn2C1OC(CO)(C(F)(F)F)C(O)C1O (stereo not given) | > 200 µM | > 200 µM | –
CCCc1cc(=O)oc2c3c(cc(OC(C)C)c12)O[C@H](C)[C@H](C)C3=O | > 200 µM | 30.2 µM | –
CCOC(=O)/C=C/[C@H](O)[C@@H](O)/C=C/C(=O)OCC | > 200 µM | 17 µM | –
CCOC(=O)C(CC[C@H]1c2[nH]c3ccccc3c2C[C@@H](C#N)N1C(=O)C(F)(F)F)C(=O)OCC | > 20.9 µM | > 20.9 µM | –
FC(F)(F)c1ccc2c(-c3cc[nH]c3)ccnc2c1 | > 200 µM | 15.5 µM | –
COc1ccc(/C=C2\NC(=S)N(CN3CCOCC3)C2=O)cc1 | > 200 µM | 46.8 µM | –
C[Si](C)(C)N1N=NC2C(=O)N(c3ccccc3)C(=O)C21 (stereo not given) | > 200 µM | > 200 µM | –
CCCC(=O)[O-].CCCC(=O)[O-].NCCN.NCCN.[Co+3].[O-][Cl+3]([O-])([O-])[O-] | – | – | inactive
Cc1c2ccccc2nc(CSc2n[nH]c(=S)s2)[n+]1[O-] | > 200 µM | > 200 µM | –
O=C1CCCSC(=O)N1Cc1ccccc1 | > 200 µM | > 200 µM | –
O=C1C2C3C=CC(O3)C2C(=O)N1/N=C/c1ccc2c(c1)OCO2 (stereo not given) | > 200 µM | > 200 µM | –
CC1(C)COC(c2cc3c(cc2Br)OCO3)=N1 | > 209 µM | > 209 µM | –
Cc1ccc(S(=O)(=O)N2CCC3(C(/C=C/c4ccccc4)=Nc4ccccc43)C2c2ccccc2)cc1 (stereo not given) | – | – | inactive
CCOC(=O)c1c(SCc2cc(=O)[nH]c(=O)[nH]2)n(-c2ccccc2)c(=S)n(-c2ccccc2)c1=O | 191 µM | > 200 µM | –
O=C(ONC(=O)[C@H]1C2C=CC(C2)[C@@H]1C(=O)NOC(=O)c1ccccc1)c1ccccc1 | > 200 µM | 5.37 µM | –
N#Cc1c(O)c(/C=N/c2ncccn2)c(=O)n2c1[nH]c1ccccc12 | > 200 µM | > 200 µM | –
